{"source": "patent US20210329924A1", "about": "“METAL-BASED ANTIMICROBIAL COMPOSITION AND METHOD OF USING” (Microbonds Inc., priority 2020, published 2021)", "key": {"[1]": {"system": "E. Coli (OD600 1.5)", "experiment": "Antimicrobial kill efficacy test on treated substrate (E. Coli)", "assay_type": "cell-based", "conditions": "1 hr; for Efficacy test Pass: 20 C.", "from_the_text": "The 100000 ppm stock solution is subsequently diluted to the silver metal loading concentrations ranging from 3000 ppm down to 10 ppm, as shown in table 1 (the final usage concentration). The solutions are then applied onto a standard fabric substrate, such as white cotton textile and tested for various characteristics. The substrates, after being treated with the solution, are coated with standardized microbes, such as E. Coli or MRSA and tested for antimicrobial kill efficacy. The treated substrates are subjected to a wash test to determine if the silver metal still remains adhered to the fabric after multiple washes. For high silver metal ppm fabrics, it is easy to determine if the color of the stain fades or washes out over time. For low-ppm, non-stained items, the substrate is subjected to a digestion method to calculate the silver concentration per unit area after a number of washes to determine if the silver is remaining stable or is washing out."}, "[2]": {"system": "MRSA (Staphylococcus)", "experiment": "Antimicrobial kill efficacy test on treated substrate (MRSA)", "assay_type": "cell-based", "conditions": "white cotton duvet, 60 C.-100 C., 1 hr"}, "[3]": {"conditions": "10 ppm silver metal loading, white cotton fabric"}, "[4]": {"conditions": "20 ppm silver metal loading, white cotton fabric"}, "[5]": {"conditions": "100 ppm silver metal loading, white cotton fabric"}, "[6]": {"conditions": "500 ppm silver metal loading, white cotton fabric"}, "[7]": {"conditions": "1000 ppm silver metal loading, white cotton fabric"}}}
{"substance": "[Ag(NH3)2]-fluoride [Example 4]", "values": [{"measurement": "Efficacy test Pass", "setting": "[1]; 10 ppm silver metal loading, white Coolmax polyester fabric", "value": "No"}, {"measurement": "Efficacy test Pass", "setting": "[1]; 20 ppm silver metal loading, white Coolmax polyester fabric", "value": "Yes"}, {"measurement": "Efficacy test Pass", "setting": "[1]; 100 ppm silver metal loading, white Coolmax polyester fabric", "value": "Yes"}, {"measurement": "Efficacy test Pass", "setting": "[1]; 500 ppm silver metal loading, white Coolmax polyester fabric", "value": "Yes"}, {"measurement": "Efficacy test Pass", "setting": "[1]; 1000 ppm silver metal loading, white Coolmax polyester fabric", "value": "Yes"}, {"measurement": "Efficacy test Pass", "setting": "[2]; 10 ppm copper metal loading", "value": "Yes"}, {"measurement": "Efficacy test Pass", "setting": "[2]; 20 ppm copper metal loading", "value": "Yes"}, {"measurement": "Efficacy test Pass", "setting": "[2]; 100 ppm copper metal loading", "value": "Yes"}, {"measurement": "Efficacy test Pass", "setting": "[2]; 500 ppm copper metal loading", "value": "Yes"}, {"measurement": "Efficacy test Pass", "setting": "[2]; 1000 ppm copper metal loading", "value": "Yes"}]}
{"substance": "[Ag(NH3)2]-formate [Example 6]", "values": [{"measurement": "Efficacy test Pass", "setting": "[1]; 10 ppm silver metal loading, Substrate = Dark Coolmax polyester fabric / Hand (Example 6: on skin)", "value": "No"}, {"measurement": "Efficacy test Pass", "setting": "[1]; 20 ppm silver metal loading, Substrate = Dark Coolmax polyester fabric / Hand (Example 6: on skin)", "value": "Yes"}, {"measurement": "Efficacy test Pass", "setting": "[1]; 100 ppm silver metal loading, Substrate = Dark Coolmax polyester fabric / Hand (Example 6: on skin)", "value": "Yes"}, {"measurement": "Efficacy test Pass", "setting": "[1]; 500 ppm silver metal loading, Substrate = Dark Coolmax polyester fabric / Hand (Example 6: on skin)", "value": "Yes"}, {"measurement": "Efficacy test Pass", "setting": "[1]; 1000 ppm silver metal loading, Substrate = Dark Coolmax polyester fabric / Hand (Example 6: on skin)", "value": "Yes"}]}
{"substance": "[Ag(NH3)2]-carbonate [Example 1]", "values": [{"measurement": "Efficacy test Pass?", "setting": "[1]; [3]", "value": "No"}, {"measurement": "Efficacy test Pass?", "setting": "[1]; [4]", "value": "Yes"}, {"measurement": "Efficacy test Pass?", "setting": "[1]; [5]", "value": "Yes"}, {"measurement": "Efficacy test Pass?", "setting": "[1]; [6]", "value": "Yes"}, {"measurement": "Efficacy test Pass?", "setting": "[1]; [7]", "value": "Yes"}]}
{"substance": "[Cu(NH3)4(H2O)n]SO4 [Example 8]", "values": [{"measurement": "Efficacy test Pass", "setting": "[2]; 10 ppm zinc metal loading", "value": "No"}, {"measurement": "Efficacy test Pass", "setting": "[2]; 20 ppm zinc metal loading", "value": "Yes"}, {"measurement": "Efficacy test Pass", "setting": "[2]; 100 ppm zinc metal loading", "value": "Yes"}, {"measurement": "Efficacy test Pass", "setting": "[2]; 500 ppm zinc metal loading", "value": "Yes"}, {"measurement": "Efficacy test Pass", "setting": "[2]; 1000 ppm zinc metal loading", "value": "Yes"}]}
{"substance": "[Ag(NH3)2]-formate [Example 5]", "values": [{"measurement": "Efficacy test Pass", "setting": "[1]; 10 ppm silver metal loading, dark Coolmax polyester fabric", "value": "No"}, {"measurement": "Efficacy test Pass", "setting": "[1]; 20 ppm silver metal loading, dark Coolmax polyester fabric", "value": "Yes"}, {"measurement": "Efficacy test Pass", "setting": "[1]; 100 ppm silver metal loading, dark Coolmax polyester fabric", "value": "Yes"}, {"measurement": "Efficacy test Pass", "setting": "[1]; 500 ppm silver metal loading, dark Coolmax polyester fabric", "value": "Yes"}, {"measurement": "Efficacy test Pass", "setting": "[1]; 1000 ppm silver metal loading, dark Coolmax polyester fabric", "value": "Yes"}]}
{"substance": "[Ag(NH3)2]-oxalate [Example 3]", "values": [{"measurement": "Efficacy test Pass", "setting": "[1]; [3]", "value": "No"}, {"measurement": "Efficacy test Pass", "setting": "[1]; [4]", "value": "Yes"}, {"measurement": "Efficacy test Pass", "setting": "[1]; [5]", "value": "Yes"}, {"measurement": "Efficacy test Pass", "setting": "[1]; [6]", "value": "Yes"}, {"measurement": "Efficacy test Pass", "setting": "[1]; [7]", "value": "Yes"}]}
